According to US9113629B2, “4-amino-6-(4-substituted-phenyl)-picolinates and 6-amino-2-(4-substituted-phenyl)-pyrimidine-4-carboxylates and their use as herbicides” (DOW AGROSCIENCES LLC, priority 2013, dated 2015):

Key:
Experiment in all cases: Post-emergent Test III, herbicidal activity in wheat and barley
Format in all cases: in vivo
[1] = test system: HORSS: barley, including spring and winter (Hordeum vulgare); conditions: Table 8, 21 d; for pest or weed control at 35 g/ha / pest or weed control at 70 g/ha / pest or weed control at 140 g/ha: Hordeum vulgare, post-emergence, 504 h, post-emergent, read-out: Visual Growth Reduction (%) 21 Days After Application HORSS; for pest or weed control at 35 g/ha: 35 g ai/ha; for pest or weed control at 70 g/ha: 70 g ai/ha; for GR20 HORSS: dose for 20 percent growth reduction; for pest or weed control at 140 g/ha: 140 g ai/ha
Method: (§1) Post-emergent Test III. Seeds of the desired test plant species were planted in Sun Gro MetroMix® 306 planting mixture, which typically has a pH of 6.0 to 6.8 and an organic matter content of about 30 percent, in plastic pots with a surface area of 103.2 square centimeters (cm^2). When required to ensure good germination and healthy plants, a fungicide treatment and/or other chemical or physical treatment was applied. The plants were grown for 7-36 days (d) in a greenhouse with an approximate 14 hour (h) photoperiod which was maintained at about 18° C. during the day and 17° C. during the night. Nutrients and water were added on a regular basis and supplemental lighting was provided with overhead metal halide 1000-Watt lamps as necessary. The plants were employed for testing when they reached the second or third true leaf stage.
(§2) A weighed amount, determined by the highest rate to be tested, of each test compound was placed in a 25 mL glass vial and was dissolved in 4 mL of a 97:3 v/v mixture of acetone and DMSO to obtain concentrated stock solutions. […] The concentrated stock solutions obtained were diluted with 20 mL of an aqueous mixture containing acetone, water, isopropyl alcohol, DMSO, Agri-Dex crop oil concentrate, and X-77 surfactant in a 48:39:10:1.5:1.5:0.02 v/v ratio to obtain spray solutions containing the highest application rates. Additional application rates were obtained by serial dilution of 12 mL of the high rate solution into a solution containing 2 mL of 97:3 v/v mixture of acetone and DMSO and 10 mL of an aqueous mixture containing acetone, water, isopropyl alcohol, DMSO, Agri-Dex crop oil concentrate, and X-77 surfactant in a 48:39:10:1.5:1.5:0.02 v/v ratio to obtain ½×, ¼×, ⅛× and 1/16× rates of the high rate. Compound requirements are based upon a 12 mL application volume at a rate of 187 liters per hectare (L/ha). Formulated compounds were applied to the plant material with an overhead Mandel track sprayer equipped with 8002E nozzles calibrated to deliver 187 L/ha over an application area of 0.503 square meters at a spray height of 18 inches (43 cm) above the average plant canopy height. Control plants were sprayed in the same manner with the solvent blank.
(§3) The treated plants and control plants were placed in a greenhouse as described above and watered by subirrigation to prevent wash-off of the test compounds. After 21 d, the condition of the test plants as compared with that of the untreated plants was determined visually and scored on a scale of 0 to 100 percent where 0 corresponds to no injury and 100 corresponds to complete kill.
(§4) By applying the well-accepted probit analysis as described by J. Berkson in Journal of the American Statistical Society, 48, 565 (1953) and by D. Finney in “Probit Analysis” Cambridge University Press (1952), herbicidal injury of a specific compound at various rates can be used to calculate GR20, GR50, GR80 and GR90 values, which are defined as growth reduction factors that correspond to the effective dose of herbicide required to provide plant growth reduction (GR) of 20 percent, 50 percent, 80 percent and 90 percent, respectively. Probit analysis was applied to data collected from multiple dose rates of individual compounds utilizing the procedures explained in the following examples. The analysis of those dose rates is captured in the following tables.

[2] = test system: KCHSC: kochia (Kochia scoparia); conditions: Table 8, 21 d; for pest or weed control at 35 g/ha / pest or weed control at 70 g/ha / pest or weed control at 140 g/ha: Bassia scoparia, post-emergence, 504 h, post-emergent, read-out: Visual Growth Reduction (%) 21 Days After Application KCHSC; for pest or weed control at 35 g/ha: 35 g ai/ha; for pest or weed control at 70 g/ha: 70 g ai/ha; for GR50 KCHSC: dose for 50 percent growth reduction; for GR50 KCHSC / GR80 KCHSC: probit analysis; for GR80 KCHSC: dose for 80 percent growth reduction; for pest or weed control at 140 g/ha: 140 g ai/ha
Method: as §1, §2, §3, §4

[3] = test system: MATSS: scented mayweed (Matricaria chamomilla), pineappleweed (Matricaria matricarioides); conditions: Table 8, 21 d; for pest or weed control at 35 g/ha / pest or weed control at 70 g/ha / pest or weed control at 140 g/ha: Matricaria chamomilla, post-emergence, 504 h, post-emergent, read-out: Visual Growth Reduction (%) 21 Days After Application MATSS; for pest or weed control at 35 g/ha: 35 g ai/ha; for pest or weed control at 70 g/ha: 70 g ai/ha; for GR50 MATSS: dose for 50 percent growth reduction; for GR50 MATSS / GR80 MATSS: probit analysis; for GR80 MATSS: dose for 80 percent growth reduction; for pest or weed control at 140 g/ha: 140 g ai/ha
Method: as §1, §2, §3, §4

[4] = test system: TRZSS: wheat, including spring and winter (Triticum aestivum); conditions: Table 8, 21 d; for GR20 TRZSS: dose for 20 percent growth reduction; for pest or weed control at 35 g/ha / pest or weed control at 70 g/ha / pest or weed control at 140 g/ha: Triticum aestivum, post-emergence, 504 h, post-emergent, read-out: Visual Growth Reduction (%) 21 Days After Application TRZSS; for pest or weed control at 35 g/ha: 35 g ai/ha; for pest or weed control at 70 g/ha: 70 g ai/ha; for pest or weed control at 140 g/ha: 140 g ai/ha
Method: as §1, §2, §3, §4

[5] = dose for 80 percent growth reduction, probit analysis

With `COC(=O)c1nc(-c2ccc(I)c(F)c2)nc(N)c1OC` [Compound 27, Methyl 6-amino-2-(3-fluoro-4-iodophenyl)-5-methoxypyrimidine-4-carboxylate] the pest or weed control at 35 g/ha [1] was 30 to 44%, the pest or weed control at 70 g/ha [1] was 45 to 59% and the “GR20 HORSS” value ([1]; probit analysis) was 11 g ai/ha. For the same compound, the pest or weed control at 35 g/ha [2] was 75 to 84%, the pest or weed control at 70 g/ha [2] was 75 to 84% and the “GR50 KCHSC” value [2] was 18 g ai/ha. The “GR80 KCHSC” value [2] was 61 g ai/ha, the pest or weed control at 35 g/ha [3] was 30 to 44% and the pest or weed control at 70 g/ha [3] was 30 to 44%. For the same compound, the “GR50 MATSS” value [3] was 109 g ai/ha, the “GR80 MATSS” value [3] was >140 g ai/ha and the “GR20 TRZSS” value ([4]; probit analysis) was 11 g ai/ha. The pest or weed control at 35 g/ha [4] was 60 to 74% and the pest or weed control at 70 g/ha [4] was 75 to 84%.
`COc1c(N)nc(-c2ccc(I)c(F)c2)nc1C(=O)O` [Compound 37, 6-Amino-2-(3-fluoro-4-iodophenyl)-5-methoxypyrimidine-4-carboxylic acid] was tested, and the pest or weed control at 35 g/ha [1] was 60 to 74%, the pest or weed control at 70 g/ha [1] was 75 to 84% and the “GR20 HORSS” value ([1]; probit analysis) was 5 g ai/ha. For the same compound, the pest or weed control at 35 g/ha [2] was 45 to 59%, the pest or weed control at 70 g/ha [2] was 60 to 74% and the “GR50 KCHSC” value [2] was 34 g ai/ha. For the same compound, the “GR80 KCHSC” value [2] was 119 g ai/ha, the pest or weed control at 35 g/ha [3] was 60 to 74% and the pest or weed control at 70 g/ha [3] was 60 to 74%. For the same compound, the “GR50 MATSS” value [3] was 21 g ai/ha, the “GR80 MATSS” value [3] was 77 g ai/ha and the “GR20 TRZSS” value ([4]; probit analysis) was 3 g ai/ha. For the same compound, the pest or weed control at 35 g/ha [4] was 75 to 84% and the pest or weed control at 70 g/ha [4] was 85 to 94%.
With `Nc1c(Cl)c(C(=O)O)nc(-c2ccc(Br)c(F)c2)c1Cl` [Compound 43, 4-Amino-6-(4-bromo-3-fluorophenyl)-3,5-dichloropicolinic acid] the pest or weed control at 35 g/ha [1] was 95 to 100%, the pest or weed control at 70 g/ha [1] was 95 to 100% and the “GR20 HORSS” value ([1]; probit analysis) was 1 g ai/ha. For the same compound, the pest or weed control at 35 g/ha [2] was 60 to 74%, the pest or weed control at 70 g/ha [2] was 85 to 94% and the “GR50 KCHSC” value [2] was 11 g ai/ha. The “GR80 KCHSC” value [2] was 41 g ai/ha, the pest or weed control at 35 g/ha [3] was 85 to 94% and the pest or weed control at 70 g/ha [3] was 95 to 100%. For the same compound, the “GR50 MATSS” value [3] was 3 g ai/ha, the “GR80 MATSS” value [3] was 7 g ai/ha and the “GR20 TRZSS” value ([4]; probit analysis) was 1 g ai/ha. It also gave a pest or weed control at 35 g/ha [4] of 85 to 94% and a pest or weed control at 70 g/ha [4] of 95 to 100%.
With `COC(=O)c1nc(-c2ccc(C#N)c(F)c2)c(F)c(N)c1Cl` [Compound 135, methyl 4-amino-3-chloro-6-(4-cyano-3-fluorophenyl)-5-fluoropicolinate] the pest or weed control at 35 g/ha [1] was 0 to 29%, the pest or weed control at 70 g/ha [1] was 30 to 44% and the pest or weed control at 140 g/ha [1] was 60 to 74%. For the same compound, the “GR20 HORSS” value ([1]; probit analysis) was 37 g ai/ha, the “GR80 HORSS” value [1, 5] was >140 g ai/ha and the pest or weed control at 35 g/ha [2] was 75 to 84%. The pest or weed control at 70 g/ha [2] was 75 to 84%, the pest or weed control at 140 g/ha [2] was 75 to 84% and the “GR50 KCHSC” value [2] was 3 g ai/ha. The “GR80 KCHSC” value [2] was 130 g ai/ha, the pest or weed control at 35 g/ha [3] was 30 to 44% and the pest or weed control at 70 g/ha [3] was 30 to 44%. The pest or weed control at 140 g/ha [3] was 45 to 59%, the “GR50 MATSS” value [3] was 125 g ai/ha and the “GR80 MATSS” value [3] was >140 g ai/ha. The “GR20 TRZSS” value ([4]; probit analysis) was 16 g ai/ha, the “GR80 TRZSS” value [4, 5] was >140 g ai/ha and the pest or weed control at 35 g/ha [4] was 30 to 44%. For the same compound, the pest or weed control at 70 g/ha [4] was 30 to 44% and the pest or weed control at 140 g/ha [4] was 45 to 59%.
Work on `Nc1c(Cl)c(C(=O)O)nc(-c2ccc(I)c(F)c2)c1Cl` [Compound 145, 4-Amino-3,5-dichloro-6-(3-fluoro-4-iodophenyl)picolinic acid] yielded a pest or weed control at 35 g/ha [1] of 85 to 94%, a pest or weed control at 70 g/ha [1] of 95 to 100% and a pest or weed control at 140 g/ha [1] of 95 to 100%. The “GR20 HORSS” value ([1]; probit analysis) was 1 g ai/ha, the pest or weed control at 35 g/ha [2] was 60 to 74% and the pest or weed control at 70 g/ha [2] was 60 to 74%. The pest or weed control at 140 g/ha [2] was 75 to 84%, the “GR50 KCHSC” value [2] was 37 g ai/ha and the “GR80 KCHSC” value [2] was 112 g ai/ha. It also gave a pest or weed control at 35 g/ha [3] of 95 to 100%, a pest or weed control at 70 g/ha [3] of 95 to 100% and a pest or weed control at 140 g/ha [3] of 95 to 100%. For the same compound, the “GR50 MATSS” value [3] was 3 g ai/ha, the “GR80 MATSS” value [3] was 10 g ai/ha and the “GR20 TRZSS” value ([4]; probit analysis) was 1 g ai/ha. For the same compound, the pest or weed control at 35 g/ha [4] was 85 to 94%, the pest or weed control at 70 g/ha [4] was 85 to 94% and the pest or weed control at 140 g/ha [4] was 85 to 94%.
